Assay results taken from ChEMBL document CHEMBL4825689, “Halting colorectal cancer metastasis via novel dual nanomolar MMP-9/MAO-A quinoxaline-based inhibitors; design, synthesis, and evaluation” (Eur J Med Chem, 2021).
The source made the active and inactive calls. The calls are words filed in the database; no cut-off is given here.

How the values were obtained:
Epithelial cell = assay: Cytotoxicity against albino rat epithelial rat by MTT assay; type: cell-based
HCT-116 [1] = assay: Anticancer activity against human HCT-116 cells overexpressing MMP9/MAO-A by MTT assay; type: functional, cell-based
[2] = Selectivity index, ratio of IC50 for albino rat epithelial rat to IC50 for human HCT116 cells overexpressing MMP9/MAO-A
HCT-116 [3] = assay: Anticancer activity against human HCT116 cells overexpressing MMP9 assessed as shrinkage incubated for 72 hrs by morphology alteration assay; type: functional, cell-based
HCT-116 [4] = assay: Inhibition of cell migration in human HCT116 cells assessed as suppression of cell migration incubated for 20 hrs by wound healing assay relative to control; type: functional
[5] = target: T1, Matrix metalloproteinase-9 (Homo sapiens, UniProt P14780); assay: Inhibition of MMP9 (unknown origin) by colorimetric assay
T1 sequence (P14780 whole entry): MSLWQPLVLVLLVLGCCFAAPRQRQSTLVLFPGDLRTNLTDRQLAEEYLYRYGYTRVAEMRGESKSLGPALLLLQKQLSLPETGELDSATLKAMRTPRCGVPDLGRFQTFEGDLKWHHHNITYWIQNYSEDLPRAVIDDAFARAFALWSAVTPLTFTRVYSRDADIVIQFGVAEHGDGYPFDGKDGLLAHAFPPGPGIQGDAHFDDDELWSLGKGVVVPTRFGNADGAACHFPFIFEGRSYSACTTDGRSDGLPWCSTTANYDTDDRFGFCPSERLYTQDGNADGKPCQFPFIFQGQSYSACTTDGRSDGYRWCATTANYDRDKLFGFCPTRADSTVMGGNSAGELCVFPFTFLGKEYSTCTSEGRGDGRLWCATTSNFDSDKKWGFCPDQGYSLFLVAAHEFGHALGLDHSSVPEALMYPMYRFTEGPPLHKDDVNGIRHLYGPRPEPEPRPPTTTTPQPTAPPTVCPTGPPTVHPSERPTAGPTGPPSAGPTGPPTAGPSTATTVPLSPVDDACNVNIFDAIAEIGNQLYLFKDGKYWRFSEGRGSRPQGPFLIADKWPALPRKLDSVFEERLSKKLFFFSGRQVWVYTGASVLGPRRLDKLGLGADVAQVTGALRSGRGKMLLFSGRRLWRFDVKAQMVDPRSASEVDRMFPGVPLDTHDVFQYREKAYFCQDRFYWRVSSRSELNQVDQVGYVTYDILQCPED

[6] = target: T2, Amine oxidase [flavin-containing] A (Homo sapiens, UniProt P21397); assay: Inhibition of MAO-A (unknown origin) by multi-well spectrophotometry
T2 sequence (P21397 whole entry): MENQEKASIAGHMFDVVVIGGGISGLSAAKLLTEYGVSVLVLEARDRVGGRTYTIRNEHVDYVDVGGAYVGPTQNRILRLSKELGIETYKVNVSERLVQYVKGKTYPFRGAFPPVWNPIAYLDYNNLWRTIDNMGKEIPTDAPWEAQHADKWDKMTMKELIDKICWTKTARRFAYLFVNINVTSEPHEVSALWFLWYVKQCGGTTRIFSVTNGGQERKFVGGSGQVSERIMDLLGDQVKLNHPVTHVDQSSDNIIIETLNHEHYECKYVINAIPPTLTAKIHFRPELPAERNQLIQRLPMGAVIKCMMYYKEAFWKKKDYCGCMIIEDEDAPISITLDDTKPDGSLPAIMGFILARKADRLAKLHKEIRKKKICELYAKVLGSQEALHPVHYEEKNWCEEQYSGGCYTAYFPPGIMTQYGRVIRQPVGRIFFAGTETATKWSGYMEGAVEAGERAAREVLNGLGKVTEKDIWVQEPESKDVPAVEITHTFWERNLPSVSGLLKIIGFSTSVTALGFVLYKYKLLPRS

[7] = target: T3, Amine oxidase [flavin-containing] B (Homo sapiens, UniProt P27338); assay: Inhibition of MAO-B (unknown origin) by fluorometric assay
T3 sequence (P27338 whole entry): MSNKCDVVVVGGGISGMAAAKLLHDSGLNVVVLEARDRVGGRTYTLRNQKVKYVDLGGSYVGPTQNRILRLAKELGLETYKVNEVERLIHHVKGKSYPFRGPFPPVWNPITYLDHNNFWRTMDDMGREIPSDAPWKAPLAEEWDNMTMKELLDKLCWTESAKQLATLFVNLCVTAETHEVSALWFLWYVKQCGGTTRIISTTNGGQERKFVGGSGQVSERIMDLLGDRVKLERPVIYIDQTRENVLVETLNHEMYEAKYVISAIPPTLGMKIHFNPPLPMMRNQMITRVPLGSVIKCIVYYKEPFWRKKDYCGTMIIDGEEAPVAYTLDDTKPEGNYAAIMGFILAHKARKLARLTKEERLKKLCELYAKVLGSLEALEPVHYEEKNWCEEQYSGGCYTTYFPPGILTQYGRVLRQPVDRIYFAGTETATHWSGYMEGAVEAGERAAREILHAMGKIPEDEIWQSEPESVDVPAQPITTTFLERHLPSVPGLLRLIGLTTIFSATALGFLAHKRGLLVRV

Homo sapiens = species: Homo sapiens; assay: Selectivity for MAO-B (unknown origin) to MAO-A (unknown origin)
[8] = Suppression of HIF1alpha expression in human HCT116 cells assessed as fold change by qRT-PCR analysis; type: functional, HCT-116
[9] = target: T1, Matrix metalloproteinase-9; assay: Inhibition of MMP9 (unknown origin) at 1.3 uM by colorimetric assay relative to control

Row | IC50 (HCT-116 [1]) [nM] | IC50 [5] [nM] | SMILES | IC50 (Epithelial cell) [nM] | Selectivity Index [2] | other results
1 | 8.81 | 9.3 | O=c1c(Cc2ccccc2)nc2ccccc2n1CC(O)CO (configuration not stated) | 48.7 | 5.52 | Activity (HCT-116 [3]): Active; inhibition (INH) (HCT-116 [4]): 27.48%; IC50 ([6]; read-out: IC50): 24 nM; IC50 [7]: 11 nM; Selectivity Index (Homo sapiens): 0.921; fold change (FC) [8]: >5
2 | 15.8 | – | O=C(O)Cn1c(=O)c(Cc2ccccc2)nc2ccccc21 | 13300 | 0.844 | –
3 | 45.9 | – | O=c1c(Cc2ccccc2)nc2ccccc2n1Cc1nnco1 | 9.84 | – | –
4 | 16200 | – | O=C1CC(=O)N(C(=O)Cn2c(=O)c(Cc3ccccc3)nc3ccccc32)N1 | 8.95 | 0.553 | –
5 | 22.3 | – | CC(C)(C)OC(=O)C(Cc1ccccc1)NC(=O)Cn1c(=O)c(Cc2ccccc2)nc2ccccc21 (configuration not stated) | 26.1 | 1.172 | IC50 ([6]; read-out: IC50): 15.2 nM
6 | 7.4 | 4.5 | CCOC(=O)NNC(=O)Cn1c(=O)c(Cc2ccccc2)nc2ccccc21 | 38.9 | 5.266 | Activity (HCT-116 [3]): Active; inhibition (INH) (HCT-116 [4]): 28.82%; IC50 ([6]; read-out: IC50): 11.9 nM; IC50 [7]: 11.2 nM; Selectivity Index (Homo sapiens): 2.07; fold change (FC) [8]: >5
7 | 5.84 | 8.41 | O=C(Cn1c(=O)c(Cc2ccccc2)nc2ccccc21)NNC(=S)Nc1ccccc1 | 16.1 | 2.751 | inhibition (INH) (HCT-116 [4]): 21.27%; IC50 ([6]; read-out: IC50): 5.41 nM; IC50 [7]: 6.81 nM; Selectivity Index (Homo sapiens): 0.649; fold change (FC) [8]: >5
8 | 19.8 | – | O=c1c(Cc2ccccc2)nc2ccccc2n1Cc1nnc(S)n1-c1ccccc1 | 7.78 | – | –
9 | 14.7 | – | NNC(=O)Cn1c(=O)c(Cc2ccccc2)nc2ccccc21 | 10.6 | 0.729 | –
10 | 18.6 | – | O=C(Cn1c(=O)c(Cc2ccccc2)nc2ccccc21)NN=c1c(=O)c2ccccc2c1=O | 7.98 | 0.435 | –
11 | 18.7 | – | O=c1c(Cc2ccccc2)nc2ccccc2n1CC(O)CCl (configuration not stated) | 16.3 | 0.954 | –
12 | 16.5 | – | O=C(Cn1c(=O)c(Cc2ccccc2)nc2ccccc21)OCCNCCO | 5.03 | – | –
13 | 16300 | – | O=C(Cn1c(=O)c(Cc2ccccc2)nc2ccccc21)N/N=C/c1ccccc1O | 8.12 | 0.508 | –
14 | 5.57 | 5.07 | NC(=S)NNC(=O)Cn1c(=O)c(Cc2ccccc2)nc2ccccc21 | 53.7 | 9.648 | inhibition (INH) (HCT-116 [4]): 61.29%; IC50 ([6]; read-out: IC50): 10.5 nM; IC50 [7]: 7.09 nM; Selectivity Index (Homo sapiens): 1.33; fold change (FC) [8]: >11.02
15 | 7.64 | 23.1 | Cc1ccc(C(=O)NNC(=O)Cn2c(=O)c(Cc3ccccc3)nc3ccccc32)cc1 | 49.7 | 6.51 | Activity (HCT-116 [3]): Active; inhibition (INH) (HCT-116 [4]): 73.32%; IC50 ([6]; read-out: IC50): 5.33 nM; IC50 [7]: 28.6 nM; Selectivity Index (Homo sapiens): 1.88; fold change (FC) [8]: >15.94
16 | 18.3 | – | CCOC(=O)Cn1c(=O)c(Cc2ccccc2)nc2ccccc21 | 10.2 | 0.559 | –
17 | 12.9 | – | N=C(N)NS(=O)(=O)c1ccc(NC(=O)Cn2c(=O)c(Cc3ccccc3)nc3ccccc32)cc1 | 8.97 | 0.695 | –

Second part, the compound before the results:

Row | SMILES | IC50 (HCT-116 [1]) [nM] | IC50 [5] [nM] | IC50 (Epithelial cell) [nM] | Selectivity Index [2] | other results
18 | O=C(CSc1nnc(-c2ccccc2)o1)NCc1ccc2c(c1)OCO2 | – | – | – | – | inhibition [9]: 30.5%
19 | Nn1c(Cn2c(=O)c(Cc3ccccc3)nc3ccccc32)nnc1Cn1c(=O)c(Cc2ccccc2)nc2ccccc21 | 14.9 | – | 6.04 | 0.405 | –
20 | O=c1c(O)c(-c2ccc(O)c(O)c2)oc2cc(O)cc(O)c12 [QUERCETIN] | – | 174 | – | – | –
21 | O=c1c(Cc2ccccc2)nc2ccccc2n1Cc1nnc(S)o1 | 10.7 | – | 5.29 | 0.512 | –
22 | CC(C)c1ccc(-n2nnc(-c3ccc(S(=O)(=O)NCC(=O)O)cc3)n2)cc1 | – | 110 | – | – | –
23 | C#CCN(C)CCCOc1ccc(Cl)cc1Cl [CLORGILINE] | – | – | – | – | IC50 [6]: Not Active
24 | c1ccc(Cc2nc3ccccc3n3cnnc23)cc1 | – | – | – | – | IC50 ([6]; read-out: IC50): 0.7 nM
25 | C(=N\NC1Nc2ccccc2N=C1Cc1ccccc1)/c1ccccc1 (configuration not stated) | – | – | – | – | IC50 ([6]; read-out: IC50): 81 nM
26 | COc1cc(/C=N/NC(N)=S)ccc1O | – | 106 | – | – | –
27 | COc1cccc2c1C(=O)c1c(O)c3c(c(O)c1C2=O)C[C@@](O)(C(=O)CO)C[C@@H]3O[C@H]1C[C@H](N)[C@H](O)[C@H](C)O1 [DOXORUBICIN] | 761 | – | 9.79 | 0.013 | –
28 | Nn1c(S)nnc1Cn1c(=O)c(Cc2ccccc2)nc2ccccc21 | 36 | – | 5.42 | 0.15 | –
29 | CNC(=O)C(Cc1ccccc1)NC(=O)C(CC(C)C)SC1CCCC1S (configuration not stated) | – | 0.57 | – | – | –
